Data on one cell line can be found in the supplement of paper PMC10307832.

Common to all, as to experiment: relative viability (nuclei count vs DMSO), 5 days (fraction); higher = more cells survive
Compound in test [1]: COC1=CC=C(C=C1)CN2C=CC3=C2C=C(C=C3)C(=O)NO + CC(C)C[C@H](NC(=O)[C@H](Cc1ccccc1)NC(=O)c1cnccn1)B(O)O [Bortezomib] (partner 0.002 µM)
The essentials: (§1)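 The day after seeding in 1536-well plates, lung cancer cell lines were treated by pin tool with a single drug, or with a fixed anchor-drug dose together with five library-drug doses (not always all listed) in √10 steps. After 5 days, a combined fix-and-stain solution (final 0.05% Triton X-100, 1% formaldehyde, 1 ug/ml Hoechst) was added. Nuclei counted on 4× images gave relative viability as treated counts over vehicle counts, reported as the median of duplicate plates.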

Compound in test [2]: C[C@]1(c2nc3c(C(N)=O)cccc3[nH]2)CCCN1 [Veliparib] + NC(=O)Nc1cc(-c2cccc(F)c2)sc1C(=O)N[C@H]1CCCNC1 [AZD7762] (partner 0.2 µM)
In short, it runs like this:
as §1

Compound in test [3]: COC1=CC=C(C=C1)CN2C=CC3=C2C=C(C=C3)C(=O)NO + C[C@@H](Oc1cc(-c2cnn(C3CCNCC3)c2)cnc1N)c1c(Cl)ccc(F)c1Cl [Crizotinib] (partner 1 µM)
The essentials:
as §1

Compound in test [4]: C[C@]1(c2nc3c(C(N)=O)cccc3[nH]2)CCCN1 [Veliparib] + CC(C)C[C@H](NC(=O)[C@H](Cc1ccccc1)NC(=O)c1cnccn1)B(O)O [Bortezomib] (partner 0.002 µM)
In short, it runs like this:
as §1

Turning to H3255, the relative viability worked out at 0.73 in test [1] (first compound 0.08 µM); 0.623 in test [1] (first compound 0.253 µM); 0.733 in test [1] (first compound 0.8 µM); 0.739 in test [1] (first compound 2.53 µM); 0.894 in test [1] (first compound 8 µM); 1 in test [2] (first compound 0.02 µM). Moreover, the relative viability is 0.893 in test [2] (first compound 0.06325 µM); 0.816 in test [2] (first compound 0.2 µM); 0.756 in test [2] (first compound 0.6325 µM); 0.857 in test [2] (first compound 2 µM); 0.571 in test [3] (first compound 0.08 µM); 0.933 in test [3] (first compound 0.253 µM). Moreover, the relative viability in test [3] (first compound 0.8 µM) turned out to be 0.88; in test [3] (first compound 2.53 µM) it was 0.833; in test [3] (first compound 8 µM) it was 0.787; in test [4] (first compound 0.02 µM), 0.729; in test [4] (first compound 0.06325 µM), 0.835; in test [4] (first compound 0.2 µM) it was 0.737. The relative viability in test [4] (first compound 0.6325 µM) amounted to 0.827; in test [4] (first compound 2 µM), 1.02.
